Data on eleven compounds can be found in patent US11939334B2, “Substituted pyrimido[4,5-b][1,4]diazepines as PLK1 degradation inducers” (UPPTHERA, INC., priority 2021, dated 2024).

For data set [1], the target named is T1, PLK1 (Homo sapiens, UniProt P53350).
T1 construct: endogenous in cells; host or cells: HeLa cells stably expressing LgBit, with CRISPR/Cas9 knock-in of HiBit at the endogenous PLK1 locus
The data set is described as follows: Luciferase assay for PLK1 in HeLa LgBit (Plk1-HiBit KI) cell line. The following applies: 300 nM compound, luminescence after 9 hours. The data set is classed as cell-based. As to the method:
2. Luciferase Assay for PLK1
(1) Preparation and Culture of HeLa LgBit (Plk1-HiBit KI) Cell Line
A HeLa cell line in which the LgBit vector was transfected and expressed stably was prepared. Then, after constructing gRNA and donor to express the HiBit amino acid sequence behind the C-terminal of the Plk1 gene, which was inherent in the cell, it was inserted into the cell together with a vector capable of expressing CRISPR/Cas9. Only the cells in which the insertion was completed and knock-in had progressed were selected, sub-cultured and used.
(2) Treatment of Compounds of the Present Invention and Method of Luciferase Assay
In the case of HeLa LgBit (Plk1-HiBit KI), the compounds were treated after being released after thymidine block, and the process was as follows. Thymidine (Sigma-Aldrich Cat. No. T9250-5G) was completely dissolved in DW and used in the experiment. For thymidine block, the products were treated with 2 mM of thymidine and then incubated for 24 hours. For release and chemical treatment, the medium was suctioned and washed with 1×PBS. TrypLE™ was added and incubated in 37° C. CO2 incubator for 5 min. Cells neutralized by adding complete media were counted through a counter. For each well of a 96-well culture plate (SPL), 3.3×10^4 cells and a total medium volume of 150 μL were seeded and incubated in a CO2 incubator.
Each cell line was incubated in a CO2 incubator for 18 hours, and Endurazine was added to each well to make up 4% of the total volume. After adding the compound of the present invention in a 96-well white plate (SPL) to a concentration of 300 nM, the wavelength of the plate reader (BMG Labtech, CLARIOstar Plus) was set to […], and then the luminescence was tracked in real time.
The results are shown in Table 2 below and FIGS. 1 and 2.
In Table 2, Activity represents the ratio of the luminescence value of each Exemplary Compound treatment group to DMSO treatment group (+++: <0.3, ++ <0.6, + <0.7).

In data set [2] the test system is H526 cell line. The data set is described as follows: Cell viability assay for H526 cell line. The data set is classed as cell-based. The following applies: Homo sapiens, NCI-H526, 120 h; H526 cells, 5 days, EZ-Cytox, 0.46-3000 nM. As to the method:
3. Cell Viability Assay for H526 Cell Line
(1) Culture of NCI-H526 Cell Line
(2) Treatment of Compounds of the Present Invention and Method of Cell Viability Assay
After treating the compound to each well to make the total volume of 200 μL, it was cultured in a CO2 incubator (Thermo Fisher Science, Cat. No. 4111) for 5 days.
The absorbance of the completely cultured sample was measured by setting the wavelength of a plate reader (BMG Labtech, CLARIOstar Plus) to […], and was measured after shaking for 3 minutes in a plate reader before measurement.
In Table 3, Activity represents IC50 value of each Exemplary Compound treatment group to H526 cell line (A: <30 nM, B: <50 nM, C: <100 nM, D: <200 nM, E: <400 nM).

Data set [3] in a line: Cell viability assay for MRC-5 cell line. The following applies: human.
Method: Cell Viability Assay for MRC-5 Cell Line
(1) Culture of MRC-5 Cell Line
The MRC-5 cell line was purchased from Korea Cell Line Bank (KCLB), Seoul, Korea. Passage of cultured cells was maintained within P15.
6×10^3 cells were seeded for each well of a 96-well plate (SPL), and the cells were cultured in total volume of 150 μL.
Each well was mixed with a medium and treated, and the volume was set to 50 μL, so that the total volume of each well was 200 μL. Then, it was cultured in 37° C.
The following compounds were used as comparative examples, and the cell viability assay was performed in the same manner as in the compounds of Examples.
(3) Cytotoxicity Experiment
After treating EZ-Cytox (DOGEN, Cat. NO. EZ-3000, Lot. No. DLS2112) 20 μL in each well of completely cultured plate, it was cultured in 37° C. CO2 incubator for 4 hours. […] The data were converted into graphs using the Prism (ver. 9) program.

T1 sequence (P53350 whole entry): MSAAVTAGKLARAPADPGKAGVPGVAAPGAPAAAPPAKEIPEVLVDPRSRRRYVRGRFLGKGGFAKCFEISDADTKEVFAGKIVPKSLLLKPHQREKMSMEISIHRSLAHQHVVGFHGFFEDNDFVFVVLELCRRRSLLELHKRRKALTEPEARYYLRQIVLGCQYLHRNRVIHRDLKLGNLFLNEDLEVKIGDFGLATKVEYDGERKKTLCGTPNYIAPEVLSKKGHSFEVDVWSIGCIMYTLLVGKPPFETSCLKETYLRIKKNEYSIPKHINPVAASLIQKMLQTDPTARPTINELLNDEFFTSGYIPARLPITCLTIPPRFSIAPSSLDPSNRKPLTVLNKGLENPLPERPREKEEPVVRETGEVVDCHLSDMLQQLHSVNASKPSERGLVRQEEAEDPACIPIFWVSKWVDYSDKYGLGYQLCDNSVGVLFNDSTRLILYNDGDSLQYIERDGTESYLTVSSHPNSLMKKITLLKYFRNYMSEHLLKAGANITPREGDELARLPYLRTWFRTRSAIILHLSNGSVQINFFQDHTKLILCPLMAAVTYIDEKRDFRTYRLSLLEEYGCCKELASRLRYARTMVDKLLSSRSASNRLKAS

Broadly, the IC50 is the concentration at which inhibition is half-maximal. Low values mean greater potency, high ones weaker potency. As to `COc1cc(C(=O)NC2CCN(C(=O)CCCOc3cccc(C4CCC(=O)NC4=O)c3)CC2)ccc1Nc1ncc2c(n1)N(C(C)C)CC(F)(F)C(=O)N2C` (centres unmarked) [Compound 1, 4-((7,7-difluoro-9-isopropyl-5-methyl-6-oxo-6,7,8,9-tetrahydro-5H-pyrimido[4,5-b][1,4]diazepin-2-yl)amino)-N-(1-(4-(3-(2,6-dioxopiperidin-3-yl)phenoxy)butanoyl)piperidin-4-yl)-3-methoxybenzamide], in data set [1], the “Activity: ratio of the luminescence value of each Exemplary Compound treatment group to DMSO treatment group” value (shortened to “Activity: ratio”) is “+++ (+++: <0.3)”. The same compound showed an IC50 in data set [2] below 50 nM. The IC50 at 5 days in data set [3] (MRC-5 cells (normal cell line)) was above 10000 nM.

Turning to `COc1cc(C(=O)NC2CCN(C(=O)CCN3CCN(c4ccc(C5CCC(=O)NC5=O)cc4)CC3)CC2)ccc1Nc1ncc2c(n1)N(C(C)C)CC(F)(F)C(=O)N2C` (centres unmarked) [Compound 2, 4-((7,7-difluoro-9-isopropyl-5-methyl-6-oxo-6,7,8,9-tetrahydro-5H-pyrimido[4,5-b][1,4]diazepin-2-yl)amino)-N-(1-(3-(4-(4-(2,6-dioxopiperidin-3-yl)phenyl)piperazin-1-yl)propanoyl)piperidin-4-yl)-3-methoxybenzamide], the “Activity: ratio” value in data set [1] is “++ (++ <0.6)”. In data set [2], this compound yielded an IC50 below 30 nM. In data set [3] (MRC-5 cells (normal cell line)), this compound registered a 50% inhibitory concentration (IC50) at 5 days above 10000 nM.

Consider `COc1cc(C(=O)NC2CCN(C(=O)CCN3CCN(c4ccc(C5CCC(=O)NC5=O)cc4)CC3)CC2)ccc1Nc1ncc2c(n1)N(C(C)C)CC1(CC1)C(=O)N2C` (centres unmarked) [Compound 3, N-(1-(3-(4-(4-(2,6-dioxopiperidin-3-yl)phenyl)piperazin-1-yl)propanoyl)piperidin-4-yl)-4-((9′-isopropyl-5′-methyl-6′-oxo-5′,6′,8′,9′-tetrahydrospiro[cyclopropane-1,7′-pyrimido[4,5-b][1,4]diazepin]-2′-yl)amino)-3-methoxybenzamide], for which, in data set [1], the “Activity: ratio” value was “++ (++ <0.6)”. This compound also came in with an IC50 in data set [2] below 100 nM. For the same compound, in data set [3] (MRC-5 cells (normal cell line)), the IC50 at 5 days is above 10000 nM.

Regarding `COc1cc(C(=O)NC2CCN(C(=O)CCN3CCN(c4cccc(C5CCC(=O)NC5=O)c4)CC3)CC2)ccc1Nc1ncc2c(n1)N(C(C)C)CC(F)(F)C(=O)N2C` (centres unmarked) [Compound 4, 4-((7,7-difluoro-9-isopropyl-5-methyl-6-oxo-6,7,8,9-tetrahydro-5H-pyrimido[4,5-b][1,4]diazepin-2-yl)amino)-N-(1-(3-(4-(3-(2,6-dioxopiperidin-3-yl)phenyl)piperazin-1-yl)propanoyl)piperidin-4-yl)-3-methoxybenzamide], the “Activity: ratio” value in data set [1] was “++ (++ <0.6)”. Moreover, in data set [2], the IC50 was below 30 nM. This compound gave an IC50 at 5 days in data set [3] (MRC-5 cells (normal cell line)) above 10000 nM.

Take `COc1cc(C(=O)NC2CCN(C(=O)CCN3CCN(c4cccc(C5CCC(=O)NC5=O)c4)CC3)CC2)ccc1Nc1ncc2c(n1)N(C(C)C)CC1(CC1)C(=O)N2C` (centres unmarked) [Compound 5, N-(1-(3-(4-(3-(2,6-dioxopiperidin-3-yl)phenyl)piperazin-1-yl)propanoyl)piperidin-4-yl)-4-((9′-isopropyl-5′-methyl-6′-oxo-5′,6′,8′,9′-tetrahydrospiro[cyclopropane-1,7′-pyrimido[4,5-b][1,4]diazepin]-2′-yl)amino)-3-methoxybenzamide]: in data set [1], the “Activity: ratio” value is “++ (++ <0.6)”. In data set [2], this compound showed an IC50 below 200 nM. The IC50 at 5 days in data set [3] (MRC-5 cells (normal cell line)) is above 10000 nM.

On to `COc1cc(C(=O)NN2CCN(C(=O)CCC3CCN(c4ccc(C5CCC(=O)NC5=O)cc4F)CC3)CC2)ccc1Nc1ncc2c(n1)N(C(C)C)CC(F)(F)C(=O)N2C` (centres unmarked) [Compound 11, 4-((7,7-difluoro-9-isopropyl-5-methyl-6-oxo-6,7,8,9-tetrahydro-5H-pyrimido[4,5-b][1,4]diazepin-2-yl)amino)-N-(1-(3-(1-(4-(2,6-dioxopiperidin-3-yl)-2-fluorophenyl)piperidin-4-yl)propanoyl)piperazin-1-yl)-3-methoxybenzamide], for which the “Activity: ratio” value in data set [1] is listed as “++ (++ <0.6)”. Also, the IC50 in data set [2] was below 50 nM. This compound displayed an IC50 at 5 days in data set [3] (MRC-5 cells (normal cell line)) above 10000 nM.

As to `COc1cc(C(=O)NC2CC3(CCN(CC4CCN(c5ccc(C6CCC(=O)NC6=O)cc5F)CC4)CC3)C2)ccc1Nc1ncc2c(n1)N(C(C)C)CC(F)(F)C(=O)N2C` (centres unmarked) [Compound 13, 4-((7,7-difluoro-9-isopropyl-5-methyl-6-oxo-6,7,8,9-tetrahydro-5H-pyrimido[4,5-b][1,4]diazepin-2-yl)amino)-N-(7-((1-(4-(2,6-dioxopiperidin-3-yl)-2-fluorophenyl)piperidin-4-yl)methyl)-7-azaspiro[3.5]nonan-2-yl)-3-methoxybenzamide], the “Activity: ratio” value in data set [1] is recorded as “++ (++ <0.6)”. In data set [2], the IC50 was below 30 nM. Further, the IC50 at 5 days in data set [3] is above 10000 nM.

`COc1cc(C(=O)NN2CCC(CN3CCN(c4ccc(C5CCC(=O)NC5=O)cc4F)CC3)C(F)(F)C2)ccc1Nc1ncc2c(n1)N(C(C)C)CC(F)(F)C(=O)N2C` (centres unmarked) [Compound 16, 4-((7,7-difluoro-9-isopropyl-5-methyl-6-oxo-6,7,8,9-tetrahydro-5H-pyrimido[4,5-b][1,4]diazepin-2-yl)amino)-N-(4-((4-(4-(2,6-dioxopiperidin-3-yl)-2-fluorophenyl)piperazin-1-yl)methyl)-3,3-difluoropiperidin-1-yl)-3-methoxybenzamide]: the “Activity: ratio” value in data set [1] is given as “++ (++ <0.6)”. In addition, the IC50 in data set [2] is below 100 nM. The compound also gave an IC50 at 5 days in data set [3] (MRC-5 cells (normal cell line)) above 10000 nM.

Turning to `COc1cc(C(=O)NN2CC(F)(F)CC2CCN2CCN(c3ccc(C4CCC(=O)NC4=O)cc3F)CC2)ccc1Nc1ncc2c(n1)N(C(C)C)CC(F)(F)C(=O)N2C` (centres unmarked) [Compound 17, 4-((7,7-difluoro-9-isopropyl-5-methyl-6-oxo-6,7,8,9-tetrahydro-5H-pyrimido[4,5-b][1,4]diazepin-2-yl)amino)-N-(2-(2-(4-(4-(2,6-dioxopiperidin-3-yl)-2-fluorophenyl)piperazin-1-yl)ethyl)-4,4-difluoropyrrolidin-1-yl)-3-methoxybenzamide], in data set [1], the “Activity: ratio” value is “++ (++ <0.6)”. Moreover, the IC50 in data set [2] was below 50 nM. For the same compound, in data set [3] (MRC-5 cells (normal cell line)), the IC50 at 5 days is above 10000 nM.

`COc1cc(C(=O)NN2CCC(F)(CN3CCN(c4ccc(C5CCC(=O)NC5=O)cc4F)CC3)CC2)ccc1Nc1ncc2c(n1)N(C(C)C)CC(F)(F)C(=O)N2C` (centres unmarked) [Compound 18, 4-((7,7-difluoro-9-isopropyl-5-methyl-6-oxo-6,7,8,9-tetrahydro-5H-pyrimido[4,5-b][1,4]diazepin-2-yl)amino)-N-(4-((4-(4-(2,6-dioxopiperidin-3-yl)-2-fluorophenyl)piperazin-1-yl)methyl)-4-fluoropiperidin-1-yl)-3-methoxybenzamide]: the “Activity: ratio” value in data set [1] was “++ (++ <0.6)”. Besides, the IC50 in data set [2] was below 100 nM. Besides, the IC50 at 5 days in data set [3] (MRC-5 cells (normal cell line)) was above 10000 nM.

As for `COc1cc(C(=O)NN2CCC(N3CC4(CCN(c5ccc(C6CCC(=O)NC6=O)cc5F)CC4)C3)CC2)ccc1Nc1ncc2c(n1)N(C(C)C)CC(F)(F)C(=O)N2C` (centres unmarked) [Compound 40, 4-((7,7-difluoro-9-isopropyl-5-methyl-6-oxo-6,7,8,9-tetrahydro-5H-pyrimido[4,5-b][1,4]diazepin-2-yl)amino)-N-(4-(7-(4-(2,6-dioxopiperidin-3-yl)-2-fluorophenyl)-2,7-diazaspiro[3.5]nonan-2-yl)piperidin-1-yl)-3-methoxybenzamide], the “Activity: ratio” value in data set [1] is reported as “++ (++ <0.6)”. The same compound yielded an IC50 in data set [2] below 30 nM.
